From patent publication US20180168157A1, “ANTIMICROBIAL COMPOSITIONS COMPRISING FOOD APPROVED ANTIMICROBIALS AND ZINC PYRITHIONE” (Janssen Pharmaceutica NV, priority 2015, published 2018)

How the values were obtained:
Type in all cases: cell-based
[1] = test system: Saccharomyces cerevisiae CBS 8803; assay: Poison plate assay (MIC and synergy index), Saccharomyces cerevisiae; details: ppm total active ingredient, half strength potato dextrose broth, 28° C., evaluation 7 days after inoculation
Description: wherein: • QA is the concentration of compound A in ppm, acting alone, which produced an end point (e.g. MIC), • Qa is the concentration of compound A in ppm, in the mixture, which produced an end point (e.g. MIC), • QB is the concentration of compound B in ppm, acting alone, which produced an end point (e.g. MIC), • Qb is the concentration of compound B in ppm, in the mixture, which produced an end point (e.g. MIC).
When the Synergy Index is greater than 1.0, antagonism is indicated. When the SI is equal to 1.0, additivity is indicated.

[2] = test system: Escherichia coli LMG 8063; assay: Poison plate assay (MIC and synergy index), Escherichia coli; details: ppm total active ingredient, nutrient broth pH 6.8, 28° C., evaluation 7 days after inoculation
Description: (§1) Experiment 1: Poison Plate Assay
(§2) In the test combinations above, product A is component (I), i.e. zinc pyrithione, and product B is a component (II), i.e. either sodium sulfite (II-a) or lysozyme (II-b).
(§3) Concentration series of total actives: a series of 24 concentrations increasing with steps of ⅓:0.27-0.35-0.47-0.63-0.84-1.13-1.50-2.00-2.67-3.56-4.75-6.33-8.44-11.25-15.00-20.00-26.70-35.60-47.46-63.28-84.38-112.50-150.00-200.00 ppm. • Culture medium: bacteria: nutrient broth (3 g beef extract and 5 g peptone in 1 liter deionised water, pH=6.8.) • Experimental set up: 96-well plates containing 300 μl pf inoculum plus 0.75 μl of a 400× concentrated stock solution of the test compounds per well. • Species of test organisms: Escherichia coli LMG 8063 • Staphylococcus aureus LMG 8195/ATCC 6538P • Inoculum: the nutrient medium is inoculated with an actively growing liquid culture of the test bacteria. • Culture conditions: 28° C., 70% relative humidity, incubation in darkness. • Evaluation: 7 days after inoculation. […]

[3] = test system: Staphylococcus aureus LMG 8195/ATCC 6538P; assay: Poison plate assay (MIC and synergy index), Staphylococcus aureus; details: ppm total active ingredient, nutrient broth pH 6.8, 28° C., evaluation 7 days after inoculation
Description: as §1, §2, §3

Row | Compound | MIC-values in ppm (minimum inhibitory concentration) [1] | MIC-values in ppm (minimum inhibitory concentration) [2] | MIC-values in ppm (minimum inhibitory concentration) [3]
1 | O=S([O-])O.[Na+] [sodium bisulfite] | 267 ppm | – | –
2 | O=S([O-])[O-].[Na+].[Na+] [sodium sulfite] | – | 267 ppm | –
3 | [O-][n+]1ccccc1[S][Zn][S]c1cccc[n+]1[O-] [zinc pyrithione, bis(2-pyridylthio)zinc 1,1′dioxide] | 2.00 ppm | 3.60 ppm | 2.00 ppm
4 | lysozyme | – | – | 267 ppm
